{"source": "patent US6361792B1", "about": "“Lipid dispersions and methods of use” (Alliance Pharmaceutical Corp., priority 1987, dated 2002)", "key": {"[1]": {"tested_on": "conscious swine", "assay": "Delayed febrile response (core body temperature) to intravenous lipid dispersion in conscious swine, with or without prophylaxis", "format": "in vivo", "conditions": "for effect on febrile reaction to fluorocarbon emulsion: prophylactic treatment, dose not given", "protocol": "Swine were instrumented 48 hours prior to study for determination of core body temperature using a catheter-tipped thermistor, and for intravenous injection using an axillary vein catheter. On the day of study, core body temperature was determined at baseline and at regular intervals for 6 h after intravenous injection of Imagent®BP."}, "[2]": {"tested_on": "anesthetized swine", "assay": "Prophylaxis of the acute hemodynamic response to intravenous fluorocarbon emulsion with cyclooxygenase inhibitors", "from_the_text": "All animals were fully anesthetized (ketamine-sodium pentobarbital), placed on positive pressure ventilation, and instrumented for determination of pulmonary artery pressure, cardiac output, ECG (electrocardiogram), right atrial pressure, and whole blood samples collections. Changes in skin color were also quantified using a relative color scale ranging from normal (light pink) to darker shades of pink and purple. Continuous electrocardiographs and oscillographic recordings of blood pressures were made. At least 30 minutes of baseline data were collected before intravascular administration of the substances. After control recordings, infusion of the pigs was carried out with 3 ml/kg body weight of either fluorocarbon emulsion as Imagent®BP (90% or 100% perfluorooctylbromide) or saline at a rate of 2 ml/min i.v. over 15 minutes.\nA series of experiments was conducted to evaluate the effects of prophylactic treatment with cyclooxygenase inhibitors on the acute hemodynamic response to intravenous injection of 90% Imagent®BP in anesthetized swine. […] Animals receiving prophylaxis were administered indomethacin (0.5 mg/kg p.o.) prior to administration of the test article. Test swine were treated prophylactically with indomethacin, ibuprofen and aspirin."}, "[3]": {"biological_target": "T1, thromboxane synthetase (Rattus norvegicus, UniProt P49430)", "T1 sequence (P49430 1-533)": "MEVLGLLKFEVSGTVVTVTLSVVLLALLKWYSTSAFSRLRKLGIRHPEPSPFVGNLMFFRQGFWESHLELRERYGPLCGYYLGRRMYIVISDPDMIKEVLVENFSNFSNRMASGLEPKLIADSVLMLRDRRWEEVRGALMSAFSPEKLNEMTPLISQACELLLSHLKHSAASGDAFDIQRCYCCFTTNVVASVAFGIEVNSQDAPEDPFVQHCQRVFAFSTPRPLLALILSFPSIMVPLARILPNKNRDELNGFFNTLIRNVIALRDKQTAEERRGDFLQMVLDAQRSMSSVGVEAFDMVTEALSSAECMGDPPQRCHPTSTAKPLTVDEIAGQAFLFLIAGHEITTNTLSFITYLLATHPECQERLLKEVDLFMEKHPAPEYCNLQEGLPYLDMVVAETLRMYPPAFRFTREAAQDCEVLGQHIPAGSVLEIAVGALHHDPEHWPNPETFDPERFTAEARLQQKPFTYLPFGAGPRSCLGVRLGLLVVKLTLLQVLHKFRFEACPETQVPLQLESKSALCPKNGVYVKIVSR", "conditions": "in the rat; cited from earlier work"}, "[4]": {"tested_on": "tumor-bearing animals", "conditions": "cited from earlier work"}}, "note": "“Also recorded” adds a separate entry of the source.", "data": [{"compound": "COc1ccc2cc([C@H](C)C(=O)O)ccc2c1", "note": "[naproxen]", "values": [{"measurement": "effect on febrile response to Imagent BP", "setting": "[1]; oral 5 mg/kg 1 h before injection (naproxen), 5 mg/kg", "value": "attenuated febrile response"}]}, {"compound": "COc1ccc2c(c1)c(CC(=O)O)c(C)n2C(=O)c1ccc(Cl)cc1", "note": "[indomethacin, 1-(pchlorobenzoyl)-5-methoxy-2-methylindole-3-acetic acid]", "values": [{"measurement": "effect on acute hemodynamic response (mPAP) to Imagent BP", "setting": "[2]; indomethacin i.v. bolus 10 mg/kg then 6 mg/kg/hr, Imagent BP 90% 3 ml/kg i.v.", "value": "prevent the acute hemodynamic response; also recorded: virtually prevented all of the hemodynamic reactions"}]}, {"compound": "CC(=O)Nc1ccc(O)cc1", "note": "[acetaminophen]", "values": [{"measurement": "effect on febrile reaction to fluorocarbon emulsion", "setting": "[1]", "value": "not prevented"}]}, {"compound": "O=C(O)CCCCCCCn1ccnc1", "note": "[N(7-carboxyheptyl)imidazole]", "values": [{"measurement": "inhibition of thromboxane synthetase", "setting": "[3]", "value": "act effectively to inhibit thromboxane synthetase"}]}, {"compound": "CC(=O)Oc1ccccc1C(=O)O", "note": "[aspirin, acetylsalicylic acid]", "values": [{"measurement": "effect on febrile reaction to fluorocarbon emulsion", "setting": "[1]", "value": "not prevented"}, {"measurement": "effect on increased mPAP response to Fluosol (20% fluorocarbon emulsion)", "setting": "[2]; aspirin pretreatment vs Fluosol alone, FIG. 2", "value": "decreased response"}, {"measurement": "blood cell counts (erythrocytes, leukocytes, platelets) after Imagent BP", "setting": "[2]; aspirin prophylaxis, oral 5 mg/kg 1 h before", "value": "nearly identical to that seen with the saline control"}, {"measurement": "effect on acute hemodynamic response (mPAP) to Imagent BP", "setting": "[2]; oral 5 mg/kg 1 h before Imagent BP (90%) 3 ml/kg i.v., 5 mg/kg", "value": "prevent the acute hemodynamic response; also recorded: appeared to completely block any increases in mPAP"}]}, {"compound": "CC(C)Cc1ccc(C(C)C(=O)O)cc1", "note": "(racemic) [ibuprofen, (±)-2-(p-isobutylphenyl)propionic acid]", "values": [{"measurement": "effect on febrile response to Imagent BP", "setting": "[1]; oral 20 mg/kg 1 h before injection, 6 h time course", "value": "significantly suppressed"}, {"measurement": "symptoms in reaction to intravenous fluorocarbon emulsion", "setting": "[4]", "value": "alleviated"}, {"measurement": "effect on acute hemodynamic response (mPAP) to Imagent BP", "setting": "[2]; oral 20 mg/kg 1 h before Imagent BP 3 ml/kg i.v., 20 mg/kg", "value": "prevent the acute hemodynamic response"}, {"measurement": "effect on acute hemodynamic response (mPAP) to Imagent BP", "setting": "[2]; oral 20 mg/kg 1 h before Imagent BP 3 ml/kg i.v., listed as Ibuprofen, 20 mg/kg", "value": "significantly attenuated the mPAP responses"}]}, {"compound": "methylprednisone", "values": [{"measurement": "effect on febrile response to Imagent BP", "setting": "[1]; oral 5 mg/kg 12 h and 2 h before injection (methylprednisone), 5 mg/kg", "value": "attenuated febrile response"}, {"measurement": "effect on febrile response to Imagent BP", "setting": "[1]; oral 5 mg/kg 12 h and 2 h before injection (methylprednisone), listed as Methylprednisone, 5 mg/kg", "value": "attenuates the response"}]}, {"compound": "Cn1ccnc1", "note": "[1-methyl-imidazole]", "values": [{"measurement": "inhibition of thromboxane synthetase", "setting": "[3]", "value": "act effectively to inhibit thromboxane synthetase"}]}, {"compound": "O=C(O)c1ccc(OCCn2ccnc2)cc1", "note": "[dazoxiben, 4-(2-(1 H-imidazol-1 yl)ethoxy)benzoic acid]", "values": [{"measurement": "inhibition of thromboxane synthetase", "setting": "[3]", "value": "act effectively to inhibit thromboxane synthetase"}]}, {"compound": "O=C(O)CCCCCc1cccc2cncn12", "note": "[CGS 13080, imidazo(1,5-pyridine-5-hexanoic acid)]", "values": [{"measurement": "inhibition of thromboxane synthetase", "setting": "[3]", "value": "act effectively to inhibit thromboxane synthetase"}]}]}
